How the values were obtained:
HEK293 cells = assay: HDAd-LacZ infection with corticosteroid, X-Gal staining for LacZ expression in HEK293 cells; type: cell-based; details: dose range of corticosteroid with HDAd-LacZ
Protocol: Methods: 116 cells or HEK293 cells were seeded in 12-well or 96-well plates in standard cell culture media. One day later, cells were infected with the gene therapy vector HDAd-LacZ (a helper-dependent adenoviral vector expressing beta-galactosidase (LacZ) under the control of the constitutive CMV promoter) at different multiplicities of infections (MOIs; virus particles per cells seeded) mixed with different amounts/concentrations of the corticosteroids triamcinolone acetonide (TAC; TriamHEXAL®, Hexal AG, Holzkirchen, Germany), betamethasone (Celestan®, MSD, Kenilworth, NJ, USA), or dexamethasone (Lipotalon®, Recordati, Milan, Italy). HDAd-LacZ was produced by GeneQuine Biotherapeutics GmbH (HDAd-LacZ originally sourced from Baylor College of Medicine, USA). In an experiment evaluating different timing or administration of the corticosteroid relative to administration of the HDAs-LacZ, cells were either pre-treated with TAC 3 hours prior to infection with HDAd-LacZ (PRE), TAC treatment and HDAd-LacZ infection was done simultaneously as described above (SIMULTANEOUS), or cells were treated with TAC 3 hours post infection with HDAd-LacZ (POST). One day later, supernatants were aspirated and cell monolayers were stained for LacZ expression using the X-Gal staining kit according to manufacturer's manual (OZ Bioscience, Marseille, France). Macroscopic and microscopic (at 4× or 10× magnification) photos of the stained monolayers were taken (blue staining indicates LacZ expression). A preliminary measure of intensity of the staining was semi-quantitatively measured using ImageJ software by converting the images to 8-bit grayscale and drawing regions of interest around the areas to be measured. The mean intensity values (on a scale of 0-255; 0 being black and 255 being white) were subtracted from 255, divided by 255 and multiplied by 100, i.e. reported values were on a scale of 0-100 (0 being white and 100 being black) where higher values indicate more intense (darker) staining.

rat knee joint = assay: Synovial/periarticular inflammation in rat knee joint after intraarticular HDAd-LacZ with or without TAC; type: in vivo; details: coadministration of 0.06 mg TAC with HDAd-LacZ
Protocol: Rats obtained from Envigo (Indianapolis, IN) were housed in polycarbonate cages, 4 animals per cage. After 4 days acclimatization, on study day 0, animals (mean weight of 310 g) were randomized into groups by bodyweight, 6 animals per group. Following randomization, test article administration was performed by intraarticular injection of 50 μL/joint. In respective groups, animals were treated with: 5E7 VP HDAd-LacZ, 5E8 VP HDAd-LacZ, 5E9 VP HDAd-LacZ, 5E10 VP HDAd-LacZ, 5E7 VP HDAd-LacZ+0.06 mg TAC, 5E8 VP HDAd-LacZ+0.06 mg TAC, 5E9 VP HDAd-LacZ+0.06 mg TAC, 5E10 VP HDAd-LacZ+0.06 mg TAC or vehicle.
For the groups co-treated with HDAd-LacZ and TAC, TAC suspension was prepared by diluting the commercially available injectable suspension (Kenalog 10, Bristol-Myers Squibb) with isotonic saline solution and added to the HDAd-LacZ preparation (i.e. the injection volume of 50 μL of the test article+TAC mixture contained 0.06 mg TAC).
At necropsy on study day 4, the rats were anesthetized with isoflurane. […]
The tissues were evaluated by the investigator microscopically for inflammation and X-gal staining in a blinded manner. The approximate lengths of the medial and lateral synovia were measured using an ocular micrometer. The lengths of the X-gal-stained areas were measured, and the length of staining relative to the total length of the area (%) was determined. […]

## CC1(C)O[C@@H]2C[C@H]3[C@@H]4CCC5=CC(=O)C=C[C@]5(C)[C@@]4(F)[C@@H](O)C[C@]3(C)[C@]2(C(=O)CO)O1 [TAC, triamcinolone acetonide]
HEK293 cells
  concentration at which enhancement of HDAd-mediated LacZ expression started: 0.18 ng/mL
Rat knee joint
  HDAd-LacZ mediated inflammation (synovial/periarticular): reduced

## C[C@H]1C[C@H]2[C@@H]3CCC4=CC(=O)C=C[C@]4(C)[C@@]3(F)[C@@H](O)C[C@]2(C)[C@@]1(O)C(=O)CO [betamethasone]
HEK293 cells
  concentration at which enhancement of HDAd-mediated LacZ expression started: 3.9 ng/mL

## C[C@@H]1C[C@H]2[C@@H]3CCC4=CC(=O)C=C[C@]4(C)[C@@]3(F)[C@@H](O)C[C@]2(C)[C@@]1(O)C(=O)CO [dexamethasone]
HEK293 cells
  concentration at which enhancement of HDAd-mediated LacZ expression started: 3.9 ng/mL
